In series [1] the test system is influenza A virus (H1N1, A/WSN/33). As to the kind of experiment: Efficacy on mice, IAV mouse infection model. Format: in vivo, BALB/c mice. The note with it: 15 mpk orally twice a day; for Body weight change: infected mice, during the experiment; for Mean difference of virus titer compared with the menstruum group: mice, 5th day after virus infection. From the text:
Female BALB/c mice were inoculated with influenza A virus (H1N1, A/WSN/33) by intranasal administration to establish an IAV mouse infection model. Menstruum, the compound of formula (1) (15 mpk) or oseltamivir phosphate (15 mpk) were orally administered twice a day. Animal weight and survival status were monitored daily during the test, and on the 5th day, some animals were sacrificed to take lung tissue for virus titer detection, and the remaining mice were used for survival rate monitoring. The in vivo anti-influenza virus efficacy of the test compound was determined by virus titer in lung tissue, mouse body weight change and survival rate.

Series [2] can be described thus: Mechanical stability: XRPD before and after jet milling. The note with it: jet milled to D90≤10 μm. The series is classed as physicochemical. From the text:
In addition, 224.90 g of the above compound of the formula (1) was jet milled (feed pressure 0.4 to 0.5 MPa, milling pressure 0.18 to 0.22 MPa) to give 212.00 g sample with a particle size of D90≤10 μm.

The nature of series [3]: Hygroscopicity by dynamic vapour sorption (DVS). The series is classed as physicochemical. Here is the method: • Instrument model: Bruker D8 Venture single-crystal diffractometer • Light source: Mo target • X-ray: Mo—K (=0.71073 Å) • Detector: CMOS based detector • Resolution: 0.84 Å • Current and voltage: 50 kV, […] 2. X-Ray Powder Diffraction (XRPD) • Instrument model: PANalytical X'Pert3 Power • X-ray: Cu, Kα, Kα1 (Å): 1.540598; Kα2 (Å): 1.544426 • X-ray tube setting: 45 kV, 40 mA • Divergence slit: 1/8° • Scan pattern: continuous • Scanning range (2θ): 3°-40° • Scan step size (2θ): 0.0263° 3. Differential Scanning Calorimetry (DSC) • Instrument model: TA Q2000/2500 differential scanning calorimeter • Heating rate: 10° C./min • Temperature range: 25° C. to setting end-point temperature • Shielding gas: nitrogen 4. Thermogravimetric Analysis (TGA) • Instrument model: TA Q5000/5500 thermogravimetric analyzer • Heating rate: 10° C./min • Temperature range: room temperature to setting end-point temperature • Shielding gas: nitrogen 5. Dynamic Vapour Sorption (DVS) • Instrument model: SMS DVS Intrinsic vapour sorption analyzer • Temperature: 25° C. • RH range: 0% RH-95% RH • Shielding gas: nitrogen

Series [4] in a line: Solid state stability of the crystal form (XRPD, HPLC). Format: physicochemical. Here is the method:
The crystal form F samples of the compound of formula (1) were placed at 60° C. for 30 days, at 25° C./92.5% RH for 30 days, and exposed to light for 15 days, respectively. The physical and chemical stability of the samples were tested by XRPD and HPLC.

Setting [5] is: Light (white light 4500 Lux, ultraviolet light 90 μw/cm^2)/15 days.

Consider `COC(=O)OCOc1c2n(ccc1=O)N([C@@H]1c3ccccc3SCc3c1ccc(F)c3F)[C@@H]1COC3(CC3)CN1C2=O` [Compound of formula (1), (((R)-12′-((S)-7,8-difluoro-6,11-dihydrodibenzo[b,e]thiepin-11-yl)-6′,8′-dioxo-6′,8′,12′,12a′-tetrahydro-1′H,4′H-spiro[cyclopropane-1,3′-[1,4]oxazino[3,4-c]pyrido[2,1-f][1,2,4]triazin]-7′-yl)oxy)methyl methyl carbonate], for which, in series [1], the Body weight change entry is recorded as “remained stable during the experiment, had no significant decline” and the “Mean difference of virus titer compared with the menstruum group” value is given as 3.92 Log10 (plaques number/gram of.

On to `CCOC(=O)C1=C[C@@H](OC(CC)CC)[C@H](NC(C)=O)[C@@H](N)C1` [Oseltamivir phosphate, oseltamivir phosphate, reference compound], for which, in series [1], the Body weight change entry was “remained stable during the experiment, had no significant decline” and the “Mean difference of virus titer compared with the menstruum group” value is given as 3.46 Log10 (plaques number/gram of.

Turning to `COC(=O)OCOc1c2n(ccc1=O)N([C@@H]1c3ccccc3SCc3c1ccc(F)c3F)[C@@H]1COC3(CC3)CN1C2=O` [crystal form F], the “Crystal form before and after milling (XRPD)” value in series [2] is reported as “does not change”. The “Crystal form before and after the DVS test (XRPD)” value in series [3] (DVS at 25° C.) was “did not change”. This molecule also yielded a Moisture-absorption weight gain in series [3] (DVS, 25° C./80% RH) of 0.10%. In addition, in series [4] (25° C./92.5% RH/30 days), the Appearance and character entry was “White”; the Crystal form change entry is on record as “No”; the “Purity (area %)” value came out at 99.0 area %; the “Purity/initial (%)” value is 100.4%. Also, in series [4] (60° C./30 days), the Appearance and character result is recorded as “White”; the Crystal form change result is given as “No”; the “Purity (area %)” value is recorded as 98.7 area %; the “Purity/initial (%)” value is recorded as 100.1%. Besides, in series [4] (Initial), the Appearance and character result was “White”; the Crystal form change result is recorded as “No”; the “Purity (area %)” value worked out at 98.6 area %. Further, in series [4] (setting [5]), the Appearance and character entry is “White”; the Crystal form change entry is on record as “No”; the “Purity (area %)” value worked out at 98.5 area %; the “Purity/initial (%)” value is on record as 99.9%.

The values are drawn from patent US12583867B2, “Pyridone derivative crystal form and preparation method and application therefor” (priority 2019, dated 2026).
